In ChEMBL document CHEMBL4825684, “Design, synthesis and biological evaluation of N-anthraniloyl tryptamine derivatives as pleiotropic molecules for the therapy of malignant glioma” (Eur J Med Chem, 2021):
The source made the active and inactive calls. The calls are words filed in the database; no cut-off is given here.

How the values were obtained:
U-87 MG [1] = test: Induction of apoptosis in human U-87 MG cells assessed as early apoptotic cells at 2 uM incubated for 48 hrs by […] double staining based flow cytometry assay (reference value: 0.63%); format: functional, U-87MG ATCC
U-251 [2] = test: Induction of apoptosis in human U-251 cells assessed as viable cells at 4 uM incubated for 48 hrs by […] double staining based flow cytometry assay (reference value: 96.6%); format: functional; settings: read-out: Activity
U-87 MG [3] = test: Induction of apoptosis in human U-87 MG cells assessed as viable cells at 8 uM incubated for 48 hrs by Annexin VIM double staining based flow cytometry assay (reference value: 97.8%); format: functional, U-87MG ATCC; settings: read-out: Activity
U-251 [4] = test: Antiproliferative activity against human U-251 cells assessed as colony formation ratio at 4 uM measured after 24 hrs by plate clone formation assay relative to control; format: functional
U-251 [5] = test: Induction of apoptosis in human U-251 cells assessed as necrotic cells at 8 uM incubated for 48 hrs by […] double staining based flow cytometry assay (reference value: 1.32%); format: functional
C6 [6] = test: Anxiolytic activity in rat C6 cells inoculated orthotopic Sprague-Dawley rat model assessed as suppression of MMP9 expression in tumor tissue at 50 mg/kg, ip twice a day administered for 13 days of tumor implantation by immunohistochemical staining analysis; format: functional, organism-based; settings: time 13.0 day
C6 [7] = test: Antitumor activity against rat C6 cells inoculated orthotopic Sprague-Dawley rat model assessed as reduction tumor volume at 50 mg/kg, ip twice a day treated 3 days after tumor cell injection measured for 13 days after tumor implantation; format: functional, organism-based; settings: time 3.0 day
C6 [8] = test: Antitumor activity against rat C6 cells inoculated orthotopic Sprague-Dawley rat model assessed as tumor necrosis at 50 mg/kg, ip twice a day administered for 13 days of tumor implantation by hematoxylin-eosin staining analysis; format: functional, organism-based; settings: time 13.0 day
C6 [9] = test: Antitumor activity against rat C6 cells inoculated orthotopic Sprague-Dawley rat model assessed as decrease in PGE2 in tumor tissue at 50 mg/kg, ip twice a day treated 3 days after tumor cell injection measured for 13 days after tumor implantation […]; format: functional, organism-based; settings: time 3.0 day
C6 [10] = test: Antitumor activity against rat C6 cells inoculated orthotopic Sprague-Dawley rat model assessed as increase in rat survival at 50 mg/kg, ip twice a day administered for 25 days (reference value: 16%); format: functional; settings: time 25 day
U-87 MG [11] = test: Induction of apoptosis in human U-87 MG cells assessed as early apoptotic cells at 8 uM incubated for 48 hrs by […] double staining based flow cytometry assay (reference value: 0.63%); format: functional, U-87MG ATCC
U-87 MG [12] = test: Antiproliferative activity against human U-87 MG cells assessed as decrease in proliferation at 4 uM measured after 24 hrs by EdU assay relative to control; format: functional, cell-based; settings: U-87MG ATCC
BV-2 = test: Inhibition of MMP9 production in mouse BV-2 cells co-cultured with rat C6 glioma cells at 2 uM incubated for 24 hrs by Western blot analysis; format: functional, cell-based
[13] = AUC (0 to t) in Sprague-Dawley rat at 60 mg/kg, ip measured up to 24 hrs by LC-MS analysis; format: ADME, organism-based; parameters: route intraperitoneal, dose 60 mg/kg, time <=24; settings: in vivo
U-87 MG [14] = test: Induction of apoptosis in human U-87 MG cells assessed as late apoptotic cells at 4 uM incubated for 48 hrs by […] double staining based flow cytometry assay (reference value: 0.61%); format: functional, U-87MG ATCC
[15] = biological target: Signal transducer and activator of transcription 3 (Homo sapiens) (UniProt P40763); test: Inhibition STAT3 phosphorylation in human U-251 cells incubated up to 8 hrs by Western blot analysis; format: cell-based; settings: time hrs <=8
Chain of Signal transducer and activator of transcription 3 (Homo sapiens) (P40763 whole entry): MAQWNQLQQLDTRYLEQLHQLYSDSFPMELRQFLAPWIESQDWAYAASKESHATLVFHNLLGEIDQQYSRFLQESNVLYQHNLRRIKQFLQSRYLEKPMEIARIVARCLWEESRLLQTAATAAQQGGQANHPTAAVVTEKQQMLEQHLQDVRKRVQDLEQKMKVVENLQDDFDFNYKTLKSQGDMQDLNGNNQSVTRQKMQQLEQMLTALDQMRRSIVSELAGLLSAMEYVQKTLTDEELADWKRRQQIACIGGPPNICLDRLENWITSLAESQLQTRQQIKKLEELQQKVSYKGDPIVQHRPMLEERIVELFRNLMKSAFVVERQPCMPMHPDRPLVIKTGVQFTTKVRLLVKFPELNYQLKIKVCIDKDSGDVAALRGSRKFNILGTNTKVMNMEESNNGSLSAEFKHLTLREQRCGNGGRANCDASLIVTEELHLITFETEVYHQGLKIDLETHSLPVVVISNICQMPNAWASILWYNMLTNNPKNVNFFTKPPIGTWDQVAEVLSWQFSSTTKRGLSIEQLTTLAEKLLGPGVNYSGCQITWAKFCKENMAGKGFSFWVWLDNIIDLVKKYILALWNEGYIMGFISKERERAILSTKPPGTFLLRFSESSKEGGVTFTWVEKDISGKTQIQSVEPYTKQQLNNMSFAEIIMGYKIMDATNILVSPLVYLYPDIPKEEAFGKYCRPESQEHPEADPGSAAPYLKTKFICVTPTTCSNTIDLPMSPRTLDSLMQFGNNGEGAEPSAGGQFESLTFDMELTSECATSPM

U-251 [16] = test: Induction of apoptosis in human U-251 cells assessed as increase in cytochrome c release at 1 to 4 uM incubated for 48 hrs by Western blot analysis relative to control; format: functional, cell-based; settings: dose 1-4 µM
U-87 MG [17] = test: Cytotoxicity against human U-87 MG cells assessed as cell viability at 4 uM measured up to 24 hrs; format: functional, U-87MG ATCC; settings: time hrs <=24, read-out: Activity
U-87 MG [18] = test: Induction of apoptosis in human U-87 MG cells assessed as necrotic cells at 2 uM incubated for 48 hrs by […] double staining based flow cytometry assay (reference value: 0.91%); format: functional, U-87MG ATCC
U-87 MG [19] = test: Induction of apoptosis in human U-87 MG cells assessed as necrotic cells at 4 uM incubated for 48 hrs by Annexin VIM double staining based flow cytometry assay (reference value: 0.91%); format: functional, U-87MG ATCC
U-251 [20] = test: Reduction in MMP9 expression in human U-251 cells incubated for 24 hrs by Western blot analysis; format: functional, cell-based; settings: dose 1-4 µM
U-251 [21] = test: Induction of apoptosis in human U-251 cells assessed as decrease in Bcl2/Bax ratio at 2 to 4 uM incubated for 48 hrs by Western blot analysis relative to control; format: functional, cell-based; settings: dose 2-4 µM
[22] = biological target: Signal transducer and activator of transcription 3 (Homo sapiens) (UniProt P40763); test: Inhibition STAT3 phosphorylation in human U-87 MG cells incubated up to 8 hrs by Western blot analysis; format: cell-based; settings: time hrs <=8
[23] = Drug uptake in Sprague-Dawley rat cerebrospinal fluid at 60 mg/kg, ip measured after 2 hrs by LC-MS analysis; format: ADME, organism-based; settings: read-out: Drug uptake
U-87 MG [24] = test: Antiproliferative activity against human U-87 MG cells assessed as growth inhibition incubated for 72 hrs by CCK-8 assay; format: functional, cell-based, U-87MG ATCC
[25] = Cmax in Sprague-Dawley rat at 60 mg/kg, ip measured up to 24 hrs by LC-MS analysis; format: ADME, organism-based; parameters: route intraperitoneal, dose 60 mg/kg, time <=24; settings: in vivo
[26] = biological target: Signal transducer and activator of transcription 3 (Homo sapiens) (UniProt P40763); test: Inhibition of STAT3 nuclear translocation in human U-87 MG cells incubated for 24 hrs by Hoechst staining based fluorescence confocal imaging analysis; format: cell-based
U-87 MG [27] = test: Induction of apoptosis in human U-87 MG cells assessed as decrease in Bcl2/Bax ratio at 2 to 4 uM incubated for 48 hrs by Western blot analysis relative to control; format: functional, cell-based; settings: U-87MG ATCC, dose 2-4 µM
U-87 MG [28] = test: Induction of apoptosis in human U-87 MG cells assessed as late apoptotic cells at 8 uM incubated for 48 hrs by […] double staining based flow cytometry assay (reference value: 0.61%); format: functional, U-87MG ATCC
U-251 [29] = test: Cytotoxicity against human U-251 cells assessed as cell viability at 4 uM measured up to 24 hrs; format: functional; settings: U-251, 24 h, time hrs <=24, read-out: Activity
U-251 [30] = test: Induction of apoptosis in human U-251 cells assessed as early apoptotic cells at 2 uM incubated for 48 hrs by […] double staining based flow cytometry assay (reference value: 0.73%); format: functional
U-251 [31] = test: Induction of apoptosis in human U-251 cells assessed as viable cells at 2 uM incubated for 48 hrs by […] double staining based flow cytometry assay (reference value: 96.6%); format: functional; settings: read-out: Activity
[32] = Toxicity in rat C6 cells inoculated orthotopic Sprague-Dawley rat model at 50 mg/kg, ip twice a day administered for 25 days; format: organism-based; settings: in vivo, 600 h, time 25 day
U-87 MG [33] = test: Induction of apoptosis in human U-87 MG cells assessed as necrotic cells at 8 uM incubated for 48 hrs by Annexin VIM double staining based flow cytometry assay (reference value: 0.91%); format: functional, U-87MG ATCC
C6 [34] = test: Antitumor activity against rat C6 cells inoculated orthotopic Sprague-Dawley rat model assessed as suppression of glioma cells to invade the surrounding brain tissue at 50 mg/kg, ip twice a day administered for 13 days of tumor implantation by hematoxylin-eosin staining analysis; format: functional, organism-based; settings: time 13.0 day
U-251 [35] = test: Induction of apoptosis in human U-251 cells assessed as early apoptotic cells at 8 uM incubated for 48 hrs by […] double staining based flow cytometry assay (Rvb+B32 = 0.73%); format: functional

COc1cc(Nc2ccccc2C(=O)NCCc2c[nH]c3ccccc23)cc(OC)c1OC
Activity (U-87 MG [1]): 2.17% | viability at 4 µM (U-251 [2]): 65.5% | viability at 8 µM (U-87 MG [3]): 77.7% | Activity (U-251 [4]): 5.33% | Activity (U-251 [5]): 7.24% | Activity (C6 [6]): Active | Activity (C6 [7]): Active | Activity (C6 [8]): Active | Activity (C6 [9]): Active | Activity (C6 [10]): 66% | Activity (U-87 MG [11]): 13.8% | Activity (U-87 MG [12]): Active | inhibition (BV-2): Active | AUC(0-t) at 24 h [13]: 7330 ng·h/mL | Activity (U-87 MG [14]): 3.78% | inhibition [15]: Active | Activity (U-251 [16]): Active | viability at 4 µM (U-87 MG [17]): 80% | Activity (U-87 MG [18]): 1.23% | Activity (U-87 MG [19]): 1.86% | Activity (U-251 [20]): Dose-Dependent Effect | Activity (U-251 [21]): Active | inhibition [22]: Active | concentration at 2 h [23]: 200 ng/mL | IC50 (U-87 MG [24]): 4.78 µM | Cmax [25]: 1150 ng/mL | inhibition [26]: Active | Activity (U-87 MG [27]): Active | Activity (U-87 MG [28]): 7.44% | viability at 4 µM (U-251 [29]): 80% | Activity (U-251 [30]): 4.93% | viability at 2 µM (U-251 [31]): 73.4% | Activity [32]: Non-Toxic | Activity (U-87 MG [33]): 1.1% | Activity (C6 [34]): Active | Activity (U-251 [35]): 9.93%
